In patent publication US6165982A, “Use of sericin as antioxidants and tyrosinase inhibitors” (Seiren Co., Ltd., priority 1996, dated 2000):

Test system: rat brain homogenate
Assay: Inhibitory test of lipid peroxide in rat brain homogenate (TBARS, TBA method)
Format: biochemical
Settings: for Inhibitory rate on an increase in lipid peroxide: 37° C., 2 hours, TBARS
Experimental: To 1 g of the rat brain stored under refrigeration was added 9 ml of 0.075M phosphate buffer (pH 7.5) and the mixture was homogenated under ice-cooling (hereinafter referred to as homogenate). To 0.5 ml of the homogenate obtained above was added 3.5 ml each of 0.075M phosphate buffers containing Sericin L and Sericin H (pH 7.5), respectively. Incubation was continued at 37° C. for 2 hours. At the end of this time, the respective final concentrations of sericin were made to 0.02~0.5%. Immediately before the isolation and after the incubation for 2 hours, 0.5 ml each of the samples was recovered and then TBARS (thiobarbituric acid reactive substance), an indicator of lipid peroxide level, was determined according to the TBA (thiobarbituric acid) method. Antioxidizing ability of sericin was calculated from the TBARS amount obtained when no sericin was added and the TBARS amount obtained when sericin was added according to the following equation 1 and expressed in terms of an inhibitory rate on an increase in lipid peroxide by incubation. In all cases of this Test Example and the following Test Examples 2~5, tests were repeated three times and the results were shown with an average value of the numerical values thus obtained. Inhibitory rate (%)=(1-A/B)×100 Equation 1 A: Increased TBARS amount obtained when a lipid peroxide inhibitory agent (an antioxidant) was added B: Increased TBARS amount obtained when no lipid peroxide inhibitory agent (an antioxidant) was added To 0.5 ml of a sample were added 2.5 ml of a 8% trichloroacetic acid solution and 2.0 ml of a 0.67% thiobarbituric acid solution and the resulting mixture was thoroughly mixed and then heated in a boiling water bath for 15 minutes. Thereafter, the mixture was centrifuged at 2000× g for 10 minutes and the supernatant was measured for absorbance at 535 nm to determine a TBARS amount. 1,1,3,3-Tetraethoxypropane was used as a standard. To 0.5 ml of the homogenate obtained above was added 3.5 ml each of 0.075M phosphate buffers (pH 7.5) containing Sericin L, ascorbic acid (vitamin C) and bovine serum albumin, respectively. Incubation was continued at 37° C. for 2 hours. The final concentrations of Sericin L, ascorbic acid and albumin were made to 0.01%~1.0%. After incubation, a TBARS amount was determined according to the TBA method, similarly to Test Example 1 and inhibitory rates on an increase in lipid peroxide were determined, respectively.

SMILES: O=C1O[C@H]([C@@H](O)CO)C(O)=C1O [Ascorbic acid, ascorbic acid]
- Inhibitory rate on an increase in lipid peroxide (final concentration 0.01%): -39%
- Inhibitory rate on an increase in lipid peroxide (final concentration 0.05%): 39%
- Inhibitory rate on an increase in lipid peroxide (final concentration 0.1%): 87%
- Inhibitory rate on an increase in lipid peroxide (final concentration 0.5%): 97%
- Inhibitory rate on an increase in lipid peroxide (final concentration 1.0%): 96%
- Effect on oxidation at low concentration (in words) (low concentration range of 0.01%): oxidation may be accelerated
